We go through 4 compounds from patent publication US20070249709A1, “Crystal forms of (S)-(8(2,6-dichlorophenyl)-6-fluoro-2,3-dihydro benzo[b][1,4]dioxin-2-yl)methanamine hydrochloride salt” (Wyeth, priority 2006, published 2007).

“Also recorded” adds a separate entry of the source. Counter-ions that a name gives are not always drawn.

Holding throughout (type): physicochemical
A short description of data set [1]: Hygroscopicity by dynamic vapor sorption (DVS). As to conditions: for Reversibility of DVS mass change / Crystal form stability at high humidity (DVS): hydrochloride; for Crystal form stability at high humidity (DVS): high RH. An excerpt:
The hygroscopicity (the ability to absorb water vapor from the surrounding atmosphere) of Forms I and II was explored by dynamic vapor sorption (DVS) experiments. […] When RH was scanned from 70% to 100%, significant mass change was observed (up to about 4.5%). […] When RH continued to be scanned from 50% to 0%, the sample lost water (weight). […] A second cycle of scanning indicated a new absorption behavior when RH was raised from 50% to 100%.
The starting RH was about 50%, and only about 1% of mass change was observed when RH was scanned to 100% RH. When RH was scanned back to 50%, the mass change appeared reversible. The mass change was very slow when RH continued to be scanned from 50% to 10%. When RH was scanned from 10% to 0%, the sample lost about 2.7% of mass (water).

Data set [2] is described as follows: Thermal stability of crystal forms under vacuum and 50° C. As to conditions: vacuum. How it is done:
Forms I, II and III were placed in oven at 50° C. and under vacuum to assess their thermal stability.

Data set [3] in a line: Solution mediated transformation (reslurry stability experiments at 25° C.). As to conditions: for Stability on slurrying (summary of Table 6): water or organic solvent, hydrochloride. An excerpt: The mixtures were then filtered and the solids obtained were characterized by one or more methods of XRPD, DSC and TGA.
Data set [4] in a line: Grinding test. As to conditions: manually ground, ambient conditions; hydrochloride. An excerpt:
Samples of Form I and Form II were manually ground and the resulting powders were characterized by one or more methods of XRPD, DSC and TGA.

The nature of data set [5]: Slurry of a mixture of Form I and Form III in a solvent, crystal form by XRPD/DSC. As to conditions: for Final Form, Slurry @ RT: about 2 days. As for the experimental part: A mixture of Form I and Form III (2θ-50 wt % of Form III) was slurried in a solvent (see Table 5) with stirring at room temperature for about 2 days. The slurry was then filtered at room temperature. The solid was dried at 50° C. under vacuum for overnight. The solid obtained by the filtration was characterized by XRPD both before and after the drying at 50° C.

Data set [6] can be described thus: Heating of a mixture of Form I and Form III. How it is done: A mixture of Form I and Form III (2θ-50 wt % of Form III) was heated to 110° C. at ambient pressure and kept at this temperature and pressure for 4 hours.
A mixture of Form I and Form III (2θ-50 wt % of Form III) was placed in an oven at 50° C. and under vacuum for 72 hours.

The mark [7] stands for this setting: RH scanned from 100% back to 50%, room temperature.

Turning to `NC[C@H]1COc2cc(F)cc(-c3c(Cl)cccc3Cl)c2O1` [Form II, (S)-(8-(2,6-dichlorophenyl)-6-fluoro-2,3-dihydrobenzo[b][1,4]dioxin-2-yl)methanamine hydrochloride], the “DVS mass (water) loss” value in data set [1] (RH scanned from 10% to 0%, room temperature) is given as “about 2.7%”. Moreover, the “Reversibility of DVS mass change” value in data set [1] (setting [7]) is “reversible”. Besides, the DVS mass change entry in data set [1] (RH scanned from about 50% to 100%, room temperature (FIG. 8)) is reported as “about 1%”. The “Crystal form stability at high humidity (DVS)” value in data set [1] (room temperature) is “substantially stable even under high humidity”. Also, in data set [2], the “Relative thermal stability (retention of crystal lattice integrity)” value is on record as “more stable than Form III”. Also, in data set [2] (72 hr), the “Final Form” value is “Form II”. The “Final form, Sample from wet filter cake” value in data set [3] (reslurry in tBME, 30 mins) is “I + II”. Also, the “Stability on slurrying (summary of Table 6)” value (“Stability on slurrying” below) in data set [3] is on record as “stable in water”. In data set [4], the “Solid form After grinding” value is listed as “did not lose its crystal structure; also recorded: Form II”.
In the case of `NC[C@H]1COc2cc(F)cc(-c3c(Cl)cccc3Cl)c2O1` [I & III, (S)-(8-(2,6-dichlorophenyl)-6-fluoro-2,3-dihydrobenzo[b][1,4]dioxin-2-yl)methanamine hydrochloride], the “Final Form, Slurry @ 50° C.” value in data set [5] (Isopropyl acetate) is “by DSC (I and minor III)”. The “Final Form, Slurry @ RT” value was “DSC (I and minor III)” in data set [5] (Isopropyl acetate); “DSC (I and minor III)” in data set [5] (Toluene). Besides, the “Resulting solid form (XRPD)” value is listed as “anhydrous Form I” in data set [6] (110° C., ambient pressure, 4 hours) and “anhydrous Form I” in data set [6] (oven at 50° C., under vacuum, 72 hours).
For the compound `NC[C@H]1COc2cc(F)cc(-c3c(Cl)cccc3Cl)c2O1` [Form III, (S)-(8-(2,6-dichlorophenyl)-6-fluoro-2,3-dihydrobenzo[b][1,4]dioxin-2-yl)methanamine hydrochloride], the “Final Form” value in data set [2] (20 hr) was “Form I + Form III”. Also, in data set [3], the “Stability on slurrying” value is “less stable under some conditions”.
For the compound `NC[C@H]1COc2cc(F)cc(-c3c(Cl)cccc3Cl)c2O1` [Form I, (S)-(8-(2,6-dichlorophenyl)-6-fluoro-2,3-dihydrobenzo[b][1,4]dioxin-2-yl)methanamine hydrochloride], the DVS mass change result in data set [1] (RH from about 50% to 70%, room temperature (FIG. 3)) is “little mass change”. In data set [1] (RH raised from 0% only to about 70% (FIG. 4)), the “Water absorption (DVS)” value was “absorbed very little water”. Moreover, the DVS mass change entry in data set [1] (RH scanned from 70% to 100%, room temperature) is “up to 4.5%”. In data set [1] (setting [7]), the “DVS mass change remaining” value was “about 2.7%” and the “Reversibility of DVS mass change” value is reported as “substantially irreversible”. The “Crystal form stability at high humidity (DVS)” value in data set [1] (room temperature) was “may be converted into another form at high RH”. For the same compound, the “Relative thermal stability (retention of crystal lattice integrity)” value in data set [2] is “more stable than Form III”. For the same compound, the “Final Form” value in data set [2] (48 hr) is “Form I”. Further, the “Stability on slurrying” value in data set [3] was “stable in organic solvents”. Moreover, the “Solid form After grinding” value in data set [4] is given as “some of Form I is changed into Form III”.
